Experimental data taken from US20200246317A1, “METHODS OF TREATING DIABETIC NEUROPATHY WITH A THIAZOLINE ANTI-HYPERALGESIC AGENT” (CERSCI THERAPEUTICS, INC., priority 2019, published 2020).

Tested on: streptozotocin (STZ)-induced diabetic rats
Test: Mechanical thresholds in streptozotocin (STZ)-induced diabetic rats
Format: in vivo, rat
Protocol: Experiments were conducted to determine the effect of Compound 1 in streptozotocin (STZ)-induced diabetic rats. In the first experiment, after obtaining mechanical threshold baselines, STZ (50 mg/kg IV) was administered (Day −7). Two days later, blood glucose levels were measured and animals that were hyperglycemic (>250 mg/dL) continued in the study. On Day 0 the baseline for mechanical thresholds prior to dosing with test articles was established for the rats. Compound 1 (10, 30, and 100 mg/kg PO), gabapentin (100 mg/kg PO) or vehicle was then administered daily for 5 days. On Day 0 mechanical thresholds were obtained at 1, 3, and 6 h post-dose. On Day 1 mechanical thresholds were measured immediately prior to dosing and then 3 h post-dose. The same regimen was followed on Day 3.
In a subsequent study, the same STZ paradigm was followed. However, in addition to the 100 mg/kg Compound 1 group, two additional cohorts received the Compound 1 100 mg/kg dose split into two or three doses per day with 50 mg/kg BID and 33 mg/kg TID. In addition to the gabapentin (100 mg/kg PO) group, a separate cohort received duloxetine (30 mg/kg PO). Additionally, in this study mechanical threshold testing was implemented every day immediately prior to dosing and 2 h post-dose for 7 days.

[1] = subsequent study, 7 days, Compound 1 100 mg/kg QD, 50 mg/kg BID, 33 mg/kg TID, gabapentin 100 mg/kg PO, duloxetine 30 mg/kg PO

Structure (SMILES) | reversal of allodynia (mechanical threshold) (first experiment, Compound 1 10, 30, 100 mg/kg PO, gabapentin 100 mg/kg PO daily, Day 0 (gabapentin: 1 h post-dose on Day 0 and all time points thereafter)) | reversal of allodynia (mechanical threshold) [1]
NCC1(CC(=O)O)CCCCC1 [gabapentin, reference compound] | significant reversal of allodynia | robustly reversed the allodynia throughout the study
CNCC[C@H](Oc1cccc2ccccc12)c1cccs1 [duloxetine, reference compound] | – | required successive doses for appreciable activity
